The test system of assay [1] is primary cultures of rat hippocampal neurons. The assay is described as follows: NMDA-induced neuronal death, trypan blue exclusion. It counts as cell-based.
Assay [2] shares this test system. The assay is described as follows: NMDA-induced increase in [Ca2+]i, Fluo-3 AM. Type of assay: cell-based. The settings on record: 5 μM NMDA; steroid 100 μM (3α5β 50 μM). The procedure:
Principally neuronal cultures were prepared from hippocampal tissue of fetal Sprague-Dawley rats on day 18 of embryonic development, as previously described (Brewer et al., Brain Research 494: 65-74 (1989)). Briefly, hippocampal cells were dissociated by trituration in Ca^2+/Mg^2+-free Hank's basic salt solution (Gibco) supplemented with 4.2 mM bicarbonate, 1 mM sodium pyruvate, 20 mM HEPES, 3 mg/ml bovine serum albumin (BSA). Dissociated cells were then pelleted by centrifugation (500×g, 4 min). […] Cells were then plated onto poly-L-lysine-coated 24-well culture dishes (Nunclon) at a density of 15,000 cell/cm^2 and maintained in a humidified atmosphere containing 5% CO2/95% air at 37° C. After 48 h, nonneuronal cell division was inhibited by a 48 h exposure to 1 μM cytosine arabinoside. Cultures were subsequently maintained in serum-free DMEM plus defined components and were used for experiments 16 to 24 days after plating.
DMSO was also added to controls to maintain a constant final DMSO concentration of […].
All data are expressed as mean±standard error of the mean. Statistical significance was evaluated using 95% confidence limits unless otherwise noted.

The target in a further assay is NR1/NR2B (NR1100) (Rattus norvegicus, UniProt P35439+Q00960). The assay is described as follows: cell-based.
The next assay concerns the target NR1/NR2A (NR1100) (Rattus norvegicus, UniProt P35439+Q00959). Kind of assay: cell-based.
The target of the next assay is T1, NR1001/NR2B (Rattus norvegicus, UniProt P35439+Q00960).
T1 construct: expressed in transfected cells; host or cells: Xenopus oocytes
The assay is described as follows: NMDA receptor currents in Ba-Ringer, Xenopus oocytes, Example 3. It counts as cell-based.

For assay [3], the system named is AMPA/kainate receptor (rat brain poly(A)+ RNA). The assay is described as follows: Kainate-evoked currents, Xenopus oocytes injected with rat brain poly(A)+ RNA. It counts as cell-based.
A further assay deals with NR1100/NR2A. Kind of assay: NMDA-induced currents of NR1 splice variants, Xenopus oocytes, Example 4. It counts as cell-based. The settings on record: 100 μM PS. The procedure: (§1) Overnight cultures (500 ml) of transformed bacterial cells were prepared in order to grow sufficient quantities for maxiprep isolation of the plasmid CDNA. Maxipreps were done using a Sorvall RC-5B ultracentrifuge, Qiagen columns and cDNA was quantitated with spectrophotometry (OD260 and OD260/ OD280 ratio). The resulting plasmid cDNA was linearized by digestion with an appropriate restriction enzyme that cleaves distal to the cDNA insert (XhoI for NR2A or NotI for NR1100, NR1000, NR1111, NR1011, NR1101, NR1001). […] The samples were stored at −20° C. until use.
(§2) In vitro transcription was performed using the Ambion mMessage mMachine kit with T7 (NR1100, NR1000, NR1111, NR1011, NR1101, NR1001) RNA polymerase. The reaction was assembled on ice and allowed to incubate at 37° C. for 1-2 hr. The resulting mRNA was precipitated (reaction termination) using lithium chloride/5 mM EDTA solution and dissolved in RNase-free H2O. The concentration (OD260) and OD260/OD280 ratio (should be more than 1.5) was determined by spectrophotometer. The yield of mRNA was generally 15-30 μg. mRNA was stored at −80° C. until use.
(§3) Intracellular recording microelectrodes were fabricated from 100 μl borosilicate glass disposable micropipettes using a 2-step protocol on a standard horizontal Flaming-Brown micropipette puller.

The target of a further assay is T2, NR1011/NR2B (Rattus norvegicus, UniProt P35439+Q00960).
T2 construct: expressed in transfected cells; host or cells: Xenopus oocytes
The assay is described as follows: NMDA receptor currents in Ba-Ringer, Xenopus oocytes, Example 3. It counts as cell-based.

The target of the next assay is NR1101/NR2A (Rattus norvegicus, UniProt P35439+Q00959). Kind of assay: NMDA-induced currents of NR1 splice variants, Xenopus oocytes, Example 4. It counts as cell-based. Set-up: expressed in transfected cells; host or cells: Xenopus oocytes injected with NR1101 and NR2A mRNA. The settings on record: NR1101/2A; 100 μM PS; 200 μM NMDA+10 μM glycine. The procedure: as §1, §2, §3

A further assay deals with T3, NR1000/NR2B (Rattus norvegicus, UniProt P35439+Q00960).
T3 construct: expressed in transfected cells; host or cells: Xenopus oocytes injected with RNA
Kind of assay: NMDA receptor currents in Ba-Ringer, Xenopus oocytes, Example 3. It counts as cell-based.

The next assay addresses T4, NR1/NR2B (Rattus norvegicus, UniProt P35439+Q00960).
T4 construct: expressed in transfected cells; host or cells: Xenopus oocytes injected with mRNA
The assay is described as follows: NMDA-induced membrane currents, Xenopus oocytes, Example 7. Type of assay: cell-based.

A further assay concerns the target T5, NR1100/NR2B (Rattus norvegicus, UniProt P35439+Q00960).
T5 construct: expressed in transfected cells; host or cells: Xenopus oocytes injected with RNA
The assay is described as follows: NMDA receptor currents in Ba-Ringer, Xenopus oocytes, Example 3. Type of assay: cell-based.

Where [4] appears, read: read-out: 3α5βS Emax (% Change).
Where [5] appears, read: acute 15 min NMDA exposure, +100 μM 3α5βS.
Where [6] appears, read: acute 15 min NMDA exposure, DMSO vehicle.
[7] abbreviates: chronic 16 hour NMDA exposure, +100 μM 3α5βS.
Setting [8] is: chronic 16 hour NMDA exposure, DMSO vehicle.

Structures can show the parent of a compound that is named as a salt. Where two headings read alike, the source gives them in different places.

NR1/NR2A (NR1100), sequence (Q00959 23-1464, other chains not shown): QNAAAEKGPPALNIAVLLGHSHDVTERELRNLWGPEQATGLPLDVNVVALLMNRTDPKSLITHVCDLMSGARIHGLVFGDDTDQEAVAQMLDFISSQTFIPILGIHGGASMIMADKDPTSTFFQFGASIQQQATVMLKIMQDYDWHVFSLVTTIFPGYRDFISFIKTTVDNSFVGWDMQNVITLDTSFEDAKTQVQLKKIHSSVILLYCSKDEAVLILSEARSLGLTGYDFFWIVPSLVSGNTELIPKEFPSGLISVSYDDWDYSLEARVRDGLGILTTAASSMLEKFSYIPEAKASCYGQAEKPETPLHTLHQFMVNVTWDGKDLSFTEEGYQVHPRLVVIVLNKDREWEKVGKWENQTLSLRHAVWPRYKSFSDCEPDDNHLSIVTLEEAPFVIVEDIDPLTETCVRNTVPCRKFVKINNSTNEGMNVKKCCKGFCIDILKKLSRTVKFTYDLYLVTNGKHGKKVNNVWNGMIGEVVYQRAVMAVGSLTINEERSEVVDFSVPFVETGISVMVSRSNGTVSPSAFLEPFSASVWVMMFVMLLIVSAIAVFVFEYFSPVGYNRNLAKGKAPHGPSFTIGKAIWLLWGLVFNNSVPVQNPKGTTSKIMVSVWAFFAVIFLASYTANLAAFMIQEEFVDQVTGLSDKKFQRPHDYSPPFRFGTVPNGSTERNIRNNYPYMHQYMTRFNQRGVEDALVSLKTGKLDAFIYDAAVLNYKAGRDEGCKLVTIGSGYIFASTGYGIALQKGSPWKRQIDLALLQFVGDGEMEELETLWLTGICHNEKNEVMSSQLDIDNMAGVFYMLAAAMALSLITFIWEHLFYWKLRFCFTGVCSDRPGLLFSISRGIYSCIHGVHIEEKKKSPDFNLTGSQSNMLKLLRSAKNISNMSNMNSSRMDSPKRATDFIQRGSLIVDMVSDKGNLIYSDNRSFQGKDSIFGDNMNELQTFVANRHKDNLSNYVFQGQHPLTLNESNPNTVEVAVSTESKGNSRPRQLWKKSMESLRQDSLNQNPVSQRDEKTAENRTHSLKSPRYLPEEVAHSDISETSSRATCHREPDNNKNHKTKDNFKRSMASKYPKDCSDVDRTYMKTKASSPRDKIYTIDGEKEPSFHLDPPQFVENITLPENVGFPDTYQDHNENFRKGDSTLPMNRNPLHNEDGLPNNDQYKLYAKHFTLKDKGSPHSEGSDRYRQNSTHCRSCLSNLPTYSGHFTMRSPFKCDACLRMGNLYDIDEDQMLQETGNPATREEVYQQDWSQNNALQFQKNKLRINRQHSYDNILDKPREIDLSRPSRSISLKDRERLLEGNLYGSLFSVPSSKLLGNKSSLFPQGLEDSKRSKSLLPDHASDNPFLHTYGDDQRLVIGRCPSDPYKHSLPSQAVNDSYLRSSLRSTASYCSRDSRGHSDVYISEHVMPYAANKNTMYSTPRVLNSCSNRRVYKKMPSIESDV
T2 sequence (Q00960 27-1482, other chains not shown): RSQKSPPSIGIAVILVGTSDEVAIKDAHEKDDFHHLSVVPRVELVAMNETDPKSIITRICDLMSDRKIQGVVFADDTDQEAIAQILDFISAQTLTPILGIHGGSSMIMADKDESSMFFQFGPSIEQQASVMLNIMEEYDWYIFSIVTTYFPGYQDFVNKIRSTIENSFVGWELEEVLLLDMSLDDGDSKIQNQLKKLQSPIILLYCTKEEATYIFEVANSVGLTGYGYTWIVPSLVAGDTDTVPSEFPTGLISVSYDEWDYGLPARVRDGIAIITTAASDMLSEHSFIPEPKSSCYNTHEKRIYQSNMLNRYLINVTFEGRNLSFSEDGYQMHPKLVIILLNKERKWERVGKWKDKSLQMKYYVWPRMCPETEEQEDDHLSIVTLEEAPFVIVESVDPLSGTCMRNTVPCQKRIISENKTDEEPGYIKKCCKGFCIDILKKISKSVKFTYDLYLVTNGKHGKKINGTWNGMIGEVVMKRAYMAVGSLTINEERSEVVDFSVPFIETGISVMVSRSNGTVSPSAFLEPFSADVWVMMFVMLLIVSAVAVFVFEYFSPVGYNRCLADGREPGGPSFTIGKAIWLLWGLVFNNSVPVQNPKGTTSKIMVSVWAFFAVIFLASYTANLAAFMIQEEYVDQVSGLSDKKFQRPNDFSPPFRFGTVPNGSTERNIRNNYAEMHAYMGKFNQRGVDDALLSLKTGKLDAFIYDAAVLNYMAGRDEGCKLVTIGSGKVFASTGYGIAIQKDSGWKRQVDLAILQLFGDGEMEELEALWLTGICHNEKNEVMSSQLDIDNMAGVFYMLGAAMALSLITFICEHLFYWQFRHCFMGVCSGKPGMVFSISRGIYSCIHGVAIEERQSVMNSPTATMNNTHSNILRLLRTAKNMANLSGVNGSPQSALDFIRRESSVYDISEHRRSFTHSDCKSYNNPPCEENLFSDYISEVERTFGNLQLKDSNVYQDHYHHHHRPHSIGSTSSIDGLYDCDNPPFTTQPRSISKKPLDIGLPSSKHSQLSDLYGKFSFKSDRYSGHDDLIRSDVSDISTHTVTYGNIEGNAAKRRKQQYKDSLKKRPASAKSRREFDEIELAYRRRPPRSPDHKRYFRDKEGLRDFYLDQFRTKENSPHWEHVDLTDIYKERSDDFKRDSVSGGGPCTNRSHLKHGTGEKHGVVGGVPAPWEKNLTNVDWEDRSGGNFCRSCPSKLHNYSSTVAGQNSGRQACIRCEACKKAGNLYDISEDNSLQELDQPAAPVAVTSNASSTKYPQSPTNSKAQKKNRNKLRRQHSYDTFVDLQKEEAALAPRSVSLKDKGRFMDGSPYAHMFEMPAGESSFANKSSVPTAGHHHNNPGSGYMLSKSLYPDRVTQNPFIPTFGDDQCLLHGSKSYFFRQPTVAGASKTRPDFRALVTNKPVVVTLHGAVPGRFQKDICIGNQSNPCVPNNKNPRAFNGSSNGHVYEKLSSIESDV
T4 sequence (Q00960 27-1482, other chains not shown): as above
Source text for NR1/NR2A (NR1100): (§4) Plasmids containing the NR1100 (NR1G) and NR2A cDNA inserts were kindly provided by Dr. Nakanishi (Kyoto University Faculty of Medicine, Kyoto, Japan). Plasmids containing the NR2B, NR2C and NR2D cDNA inserts were kindly provided by Dr. P. Seeburg (Heidelberg University, Heidelberg, Germany). Plasmids were linearized with appropriate restriction enzyme prior to in vitro transcription using the Message Machine kit (Ambion, Inc., Austin, Tex.).
(§5) Female, oocyte-positive Xenopus laevis frogs were purchased from Xenopus I (Dexter, Mich.). […] Oocytes were injected with 50 nL of RNA solutions using an electronic microinjector (Drummond Inc., Broomall, Pa.). […] The injected oocytes were used for experiments following 1-5 days of incubation in Barth's solution at 18-20° C.
(§6) The microelectrodes were fabricated from borosilicate glass capillaries with a programmed puller (Sutter Instrument Co., Calif.). Microelectrode resistance was 1-3 MΩ_when filled with 3 M KCl.
(§7) Except where otherwise stated, oocytes were clamped at a holding potential of −70 mV during data acquisition. The membrane current was filtered at 500 Hz and sampled at 100 Hz. Drugs were applied using a gravity-driven external perfusion system. The working volume of the recording chamber was 30 μl and the rate of the perfusion was 50 μl/sec. The drug application lasted 10 sec and was followed by 60 s wash. Data acquisition and external perfusion were controlled using custom-written software implemented in the SuperScope II development environment (GW Instruments, Mass.). All experiments were performed at room temperature of 22-24° C. Peak or steady-state current measurements were normalized and expressed as a fraction of the peak or steady-state control current measurements, which were performed before and after application of every single concentration of agonists or steroids.
(§8) Concentration-response data were analyzed by nonlinear regress ion using the logistic equation Response=Emax/(1+(EC50/c)^nH), where c is concentration, Emaxis the maximum response, nHis the Hill coefficient. The data are presented as mean±SEM. EC50values are averaged as logarithms (De Lean et al., Am. J. Physiol. 235: E97-E102 (1978))±the SEM of the log EC50. […] The pooled data were simultaneously fitted to the logistic equation, either with Emax and EC50 constrained to be identical in the presence and absence of PS, or allowing one or both to vary independently. […] This was regarded as indicating a significant treatment effect of PS, but the change in EC50and Emaxwas not considered significant. […] No attempt was made to test the generally small changes in nHfor statistical significance.
Source text for NR1/NR2B (NR1100): as §4, §5, §6, §7, §8

Consider `CC(=O)[C@H]1CC[C@H]2[C@@H]3CC[C@@H]4C[C@H](OS(=O)(=O)O)CC[C@]4(C)[C@H]3CC[C@]12C` [3α5βS, 3α5β-pregnanolone sulfate], for which the EC50 in assay [1] (Rattus norvegicus, Hippocampal neuron, read-out: 3α5βS EC50, inhibition of NMDA-induced neuronal death) came out at 45 µM; at NR1/NR2B (NR1100), 38 µM; on NR1/NR2A (NR1100), 62 µM. For the same molecule, the “3α5βS nH, inhibition of neuronal death” value in assay [1] (acute 30 μM NMDA exposure) came out at 2.5. Moreover, in assay [1] (acute 30 μM NMDA exposure), the “maximal inhibition (Imax) of cell death” value was determined as 97%. Also, the “inhibition of NMDA-induced neuronal death” value in [1] (acute 30 μM NMDA, steroid 100 μM (3α5β 50 μM)) is listed as “nearly eliminates the toxic effects”. Further, the “reduction of NMDA-induced rise in [Ca2+]i” value in assay [2] is listed as 32±5%. For the same molecule, the Emax on NR1/NR2B (NR1100) (setting [4]) is -82 ± 1%; at NR1/NR2A (NR1100) (setting [4]), -81 ± 5%.
Consider `CN[C@H](CC(=O)O)C(=O)O` [NMDA, N-methyl-D-aspartate], for which the “NMDA Emax, neuronal death” value is listed as 63% in assay [1] (setting [5]), 80% in assay [1] (setting [6]), 70% in [1] (setting [7]) and 86% in assay [1] (setting [8]). Further, the “NMDA nH, neuronal death” value is reported as 1.8 in assay [1] (setting [5]), 2.1 in assay [1] (setting [6]), 2.0 in [1] (setting [7]) and 1.9 in assay [1] (setting [8]). For the same molecule, the EC50 in assay [1] (read-out: NMDA EC50 for neuronal death, acute 15 min NMDA exposure, +100 μM 3α5βS) amounted to 71 µM; in [1] (read-out: NMDA EC50 for neuronal death, acute 15 min NMDA exposure, DMSO vehicle), 28 µM; in assay [1] (read-out: NMDA EC50 for neuronal death, chronic 16 hour NMDA exposure, +100 μM 3α5βS) it was 15 µM.
Consider pregnenolone sulfate [PS], for which the “PS Emax” value at NR1001/NR2B is recorded as 0.63 ± 0.07; on NR1011/NR2B it was 0.78 ± 0.14; at NR1000/NR2B, 0.58 ± 0.04; on NR1100/NR2B, 1.02 ± 0.10. The “PS nHill” value was 1.34 ± 0.17 at NR1001/NR2B, 1.29 ± 0.19 at NR1011/NR2B, 1.52 ± 0.15 at NR1000/NR2B and 1.42 ± 0.11 on NR1100/NR2B. The onset of inhibition in assay [3] is recorded as under 10 s. Further, in [3] (100 μM PS, 100 μM kainate), the “reduction in kainate-evoked responses” value is reported as 49±3%. Further, the “difference in mrc between NR1000/NR2A and NR1100/NR2A” value in the assay on NR1100/NR2A was found to be 1.3 fold. Moreover, the “maximum relative current (MRC)” value at NR1101/NR2A is on record as 1.78. Moreover, the “potentiation of membrane current” value on NR1/NR2B (100 μM PS, […] μM NMDA, 10 μM glycine) is 95±6%. For the same molecule, at NR1/NR2B (PS 0.5 to 200 μM), the maximum potentiation is on record as 119±9%.

The term EC50 denotes the midpoint of the concentration-response curve. The Emax is the maximal effect, on the per cent scale that the assay sets.

For the origin of these results see patent US6623933B1 (priority 1999, dated 2003).
